In this assay the test system is Enterobacter cloacae QZ18103. Particulars: QZ18103, 24 h.

No end group written: not given here.

Our source for the MBC values is patent publication US20240138406A1, “ANTIMICROBIAL PEPTIDE SCYAMPCIN44-63 AND APPLICATION THEREOF” (Xiamen University, priority 2021, published 2024).

For orientation: MBC means the smallest concentration meeting the test's criterion for killing. Read a high MBC as weaker bactericidal potency. “GKKKKRNMMKTKEPGIIFFF-NH2 [Scyampcin44-63]” yielded an MBC of 3 to 6 µM.
